Key:
BACE1 = details: different cell lines; Costantini et al., 2005; cited from earlier work
ATase2 mRNA = test: Real-time quantitative PCR of ATase2 mRNA after ceramide treatment; format: cell-based, human; details: H4 and SH-SY5Y cells; C6-ceramide 10 μM; seen as early as 4 hours, still evident after 4 days
Procedure: (§1) Chinese Hamster Ovary (CHO) cells were grown in DMEM (Gibco BRL) supplemented with 10% fetal bovine serum (FBS) and penicillin/streptomycin (Mediatech, Inc., Herndon, Va.) as described before (Puglielli et al., 2001, Nat. Cell Biol. 3: 905-912; Puglielli et al., 2003, J. Biol. Chem. 278: 19777-19783). Cells were maintained in a humidified atmosphere with 5% CO2. For ceramide treatment, C6-ceramide (simply called “ceramide”) was administered in the absence of serum and at the final concentration of 10 μM; treatment was started when cells were ˜80% confluent and carried out for the time specified. […]
(§2) RNA quantification was performed by real-time PCR in an ABI PRISM® 7000 Sequence Detection System using SYBR® Green PCR Master Mix (Applied Biosystems). […] Delta-delta Ct values were normalized with those obtained from the amplification of GAPDH and were expressed as fold-change over control. […]
(§3) The 4-hour treatment was performed in the presence of 0.5% fetal bovine serum whereas the 4-days treatment was performed in the presence of 10% fetal bovine serum, as previously described (Puglielli et al., 2003, J. Biol. Chem. 278: 19777-19783; Costantini et al., 2007, Biochem. J. 407: 383-395)). Results are expressed as fold ±S.D. of control (no treatment). […] Results are expressed as fold ±S.D. of age-matched controls.

ATase1 mRNA = test: Real-time quantitative PCR of ATase1 mRNA after ceramide treatment; format: cell-based, human; details: H4 and SH-SY5Y cells; C6-ceramide 10 μM; seen as early as 4 hours, still evident after 4 days
Procedure: as §1, §2, §3

CCCCCCCCCCCCC/C=C/[C@@H](O)[C@H](CO)NC(=O)CCCCC [ceramide, C6-ceramide]
acetylation and stabilization of BACE1 (BACE1): increased acetylation and stabilization of BACE1
mRNA levels of ATase2 (transcription) (ATase2 mRNA): marked activation of transcription
mRNA levels of ATase1 (transcription) (ATase1 mRNA): marked activation of transcription

From US20090136977A1, “NOVEL TARGETS FOR ALZHEIMER'S DISEASE” (priority 2007, published 2009)
